Test results from ChEMBL document CHEMBL4390652, “Design, biological evaluation and X-ray crystallography of nanomolar multifunctional ligands targeting simultaneously acetylcholinesterase and glycogen synthase kinase-3” (Eur J Med Chem, 2019).

Columns and labels:
[1] = biological target: Inhibitor of nuclear factor kappa-B kinase subunit alpha (Homo sapiens) (UniProt O15111); test: Binding affinity to wild-type human full length IKK-alpha (M1 to E745 residues) expressed in mammalian expression system assessed as residual binding level at 10 uM by Kinomescan method relative to control
[2] = system: Hepatocyte growth factor receptor (Homo sapiens), P08581 [Y1235D]; test: Binding affinity to human partial length MET Y1235D mutant (D1010 to S1367 residues) expressed in bacterial expression system assessed as residual binding level at 10 uM by Kinomescan method relative to control
[3] = biological target: Receptor-interacting serine/threonine-protein kinase 2 (Homo sapiens) (UniProt O43353); test: Binding affinity to wild-type human partial length RIPK2 (M1 to K310 residues) expressed in bacterial expression system assessed as residual binding level at 10 uM by Kinomescan method relative to control
[4] = biological target: Activated CDC42 kinase 1 (Homo sapiens) (UniProt Q07912); test: Binding affinity to wild-type human partial length TNK2 (S159 to D474 residues) expressed in bacterial expression system assessed as residual binding level at 10 uM by Kinomescan method relative to control
[5] = biological target: Serine/threonine-protein kinase RIO3 (Homo sapiens) (UniProt O14730); test: Binding affinity to wild-type human full length RIOK3 (M1 to E519 residues) expressed in bacterial expression system assessed as residual binding level at 10 uM by Kinomescan method relative to control
[6] = biological target: Receptor-interacting serine/threonine-protein kinase 1 (Homo sapiens) (UniProt Q13546); test: Binding affinity to wild-type human partial length RIPK1 (M1 to K305 residues) expressed in bacterial expression system assessed as residual binding level at 10 uM by Kinomescan method relative to control
[7] = biological target: Megakaryocyte-associated tyrosine-protein kinase (Homo sapiens) (UniProt P42679); test: Binding affinity to wild-type human full length CTK (M43 to P508 residues) expressed in mammalian expression system assessed as residual binding level at 10 uM by Kinomescan method relative to control
[8] = biological target: Serine/threonine-protein kinase PLK1 (Homo sapiens) (UniProt P53350); test: Binding affinity to wild-type human partial length PLK1 (A33 to F325 residues) expressed in mammalian expression system assessed as residual binding level at 10 uM by Kinomescan method relative to control
[9] = system: Tyrosine-protein kinase ABL1 (Homo sapiens), P00519 [Q252H]; test: Binding affinity to human phosphorylated ABL1 Q252H mutant expressed in mammalian expression system assessed as residual binding level at 10 uM by Kinomescan method relative to control
[10] = biological target: Dual specificity protein kinase CLK4 (Homo sapiens) (UniProt Q9HAZ1); test: Binding affinity to wild-type human partial length CLK4 (R135 to K481 residues) expressed in bacterial expression system assessed as residual binding level at 10 uM by Kinomescan method relative to control
[11] = biological target: Dual specificity testis-specific protein kinase 1 (Homo sapiens) (UniProt Q15569); test: Binding affinity to wild-type human full length TESK1 (R37 to S626 residues) expressed in bacterial expression system assessed as residual binding level at 10 uM by Kinomescan method relative to control
[12] = biological target: Epidermal growth factor receptor (Homo sapiens) (UniProt P00533); test: Binding affinity to wild-type human partial length EGFR (R669 to V1011 residues) expressed in bacterial expression system assessed as residual binding level at 10 uM by Kinomescan method relative to control
[13] = biological target: Activin receptor type-2A (Homo sapiens) (UniProt P27037); test: Binding affinity to wild-type human ACVR2A (V171 to T499 residues) expressed in bacterial expression system assessed as residual binding level at 10 uM by Kinomescan method relative to control
[14] = biological target: Serine/threonine-protein kinase tousled-like 1 (Homo sapiens) (UniProt Q9UKI8); test: Binding affinity to wild-type human partial length TLK1 (K447 to A754 residues) expressed in bacterial expression system assessed as residual binding level at 10 uM by Kinomescan method relative to control
[15] = biological target: Serine/threonine-protein kinase ULK1 (Homo sapiens) (UniProt O75385); test: Binding affinity to wild-type human partial length ULK1 (M1 to T309 residues) expressed in mammalian expression system assessed as residual binding level at 10 uM by Kinomescan method relative to control
[16] = biological target: Protein kinase C theta type (Homo sapiens) (UniProt Q04759); test: Binding affinity to wild-type human partial length PRKCQ (L350 to S706 residues) expressed in bacterial expression system assessed as residual binding level at 10 uM by Kinomescan method relative to control
[17] = biological target: Ephrin type-B receptor 3 (Homo sapiens) (UniProt P54753); test: Binding affinity to wild-type human partial length EPHB3 (Q599 to T928 residues) expressed in bacterial expression system assessed as residual binding level at 10 uM by Kinomescan method relative to control
[18] = biological target: CDK4/Cyclin D3 (Homo sapiens) (UniProt P11802+P30281); test: Binding affinity to wild-type human full length CDK4/cyclinD3 (M1 to E303 residues) expressed in mammalian expression system assessed as residual binding level at 10 uM by Kinomescan method relative to control
[19] = biological target: Ephrin type-B receptor 6 (Homo sapiens) (UniProt O15197); test: Binding affinity to wild-type human partial length EPHB6 (Q634 to P948 residues) expressed in mammalian expression system assessed as residual binding level at 10 uM by Kinomescan method relative to control
[20] = biological target: Glycogen synthase kinase-3 (Sus scrofa, UniProt B2LUN4+I6LNT8)
Description: Inhibition of native porcine brain GSK-3alpha/beta using GS-1 as substrate incubated for 30 mins in presence of [gamma-33P]ATP by liquid scintillation counting assay

[21] = biological target: Mitogen-activated protein kinase kinase kinase 4 (Homo sapiens) (UniProt Q9Y6R4); test: Binding affinity to wild-type human partial length MAP3K4 (G1319 to E1608 residues) expressed in bacterial expression system assessed as residual binding level at 10 uM by Kinomescan method relative to control
[22] = biological target: Mitogen-activated protein kinase 15 (Homo sapiens) (UniProt Q8TD08); test: Binding affinity to wild-type human partial length ERK8 (M1 to P437 residues) expressed in bacterial expression system assessed as residual binding level at 10 uM by Kinomescan method relative to control
[23] = biological target: Non-receptor tyrosine-protein kinase TYK2 (Homo sapiens) (UniProt P29597); test: Binding affinity to wild-type human partial length TYK2 JH1 catalytic domain (V877 to C1187 residues) expressed in mammalian expression system assessed as residual binding level at 10 uM by Kinomescan method relative to control
[24] = biological target: Casein kinase I isoform gamma-2 (Homo sapiens) (UniProt P78368); test: Binding affinity to wild-type human full length CSNK1G2 (M1 to K415 residues) expressed in bacterial expression system assessed as residual binding level at 10 uM by Kinomescan method relative to control
[25] = biological target: SRSF protein kinase 3 (Homo sapiens) (UniProt Q9UPE1); test: Binding affinity to wild-type human partial length SRPK3 (P41 to P567 residues) expressed in bacterial expression system assessed as residual binding level at 10 uM by Kinomescan method relative to control
Chain of SRSF protein kinase 3 (Homo sapiens) (Q9UPE1 whole entry, the tested form may be a part): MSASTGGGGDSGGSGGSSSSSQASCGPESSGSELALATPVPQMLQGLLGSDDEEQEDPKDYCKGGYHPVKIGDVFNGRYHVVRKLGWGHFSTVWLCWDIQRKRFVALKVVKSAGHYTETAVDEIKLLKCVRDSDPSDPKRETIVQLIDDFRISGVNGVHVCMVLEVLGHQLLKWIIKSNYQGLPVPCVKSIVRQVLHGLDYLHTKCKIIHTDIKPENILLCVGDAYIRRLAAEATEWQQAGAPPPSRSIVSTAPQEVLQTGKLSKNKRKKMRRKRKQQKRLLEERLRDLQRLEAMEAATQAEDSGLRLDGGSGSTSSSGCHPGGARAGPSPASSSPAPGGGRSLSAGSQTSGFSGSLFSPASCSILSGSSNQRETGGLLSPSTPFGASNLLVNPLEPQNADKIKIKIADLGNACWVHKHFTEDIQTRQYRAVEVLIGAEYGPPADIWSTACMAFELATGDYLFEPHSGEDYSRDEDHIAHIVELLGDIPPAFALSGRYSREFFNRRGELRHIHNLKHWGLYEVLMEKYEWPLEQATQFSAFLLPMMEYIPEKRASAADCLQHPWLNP

Chain of Inhibitor of nuclear factor kappa-B kinase subunit alpha (Homo sapiens) (O15111 whole entry, the tested form may be a part): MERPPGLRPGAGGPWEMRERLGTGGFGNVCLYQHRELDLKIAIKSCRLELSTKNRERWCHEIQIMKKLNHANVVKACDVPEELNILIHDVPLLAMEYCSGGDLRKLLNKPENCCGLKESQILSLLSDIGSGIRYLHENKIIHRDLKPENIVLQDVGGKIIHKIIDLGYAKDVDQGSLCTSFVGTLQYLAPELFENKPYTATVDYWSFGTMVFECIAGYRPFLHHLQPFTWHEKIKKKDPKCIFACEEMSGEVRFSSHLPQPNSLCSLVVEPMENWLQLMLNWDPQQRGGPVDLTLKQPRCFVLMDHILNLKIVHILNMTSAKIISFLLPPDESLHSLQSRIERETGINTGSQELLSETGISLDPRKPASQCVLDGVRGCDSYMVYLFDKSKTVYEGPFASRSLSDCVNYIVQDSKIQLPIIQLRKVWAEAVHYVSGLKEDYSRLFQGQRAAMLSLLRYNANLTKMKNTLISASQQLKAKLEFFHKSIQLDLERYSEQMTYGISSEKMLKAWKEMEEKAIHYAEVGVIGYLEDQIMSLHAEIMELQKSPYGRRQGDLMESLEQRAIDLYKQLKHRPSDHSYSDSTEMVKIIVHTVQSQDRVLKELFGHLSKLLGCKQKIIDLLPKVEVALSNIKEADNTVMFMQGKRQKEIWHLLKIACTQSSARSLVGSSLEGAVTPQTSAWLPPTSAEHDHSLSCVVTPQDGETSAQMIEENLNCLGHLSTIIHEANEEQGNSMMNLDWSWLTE
Chain of Receptor-interacting serine/threonine-protein kinase 1 (Homo sapiens) (Q13546 whole entry, the tested form may be a part): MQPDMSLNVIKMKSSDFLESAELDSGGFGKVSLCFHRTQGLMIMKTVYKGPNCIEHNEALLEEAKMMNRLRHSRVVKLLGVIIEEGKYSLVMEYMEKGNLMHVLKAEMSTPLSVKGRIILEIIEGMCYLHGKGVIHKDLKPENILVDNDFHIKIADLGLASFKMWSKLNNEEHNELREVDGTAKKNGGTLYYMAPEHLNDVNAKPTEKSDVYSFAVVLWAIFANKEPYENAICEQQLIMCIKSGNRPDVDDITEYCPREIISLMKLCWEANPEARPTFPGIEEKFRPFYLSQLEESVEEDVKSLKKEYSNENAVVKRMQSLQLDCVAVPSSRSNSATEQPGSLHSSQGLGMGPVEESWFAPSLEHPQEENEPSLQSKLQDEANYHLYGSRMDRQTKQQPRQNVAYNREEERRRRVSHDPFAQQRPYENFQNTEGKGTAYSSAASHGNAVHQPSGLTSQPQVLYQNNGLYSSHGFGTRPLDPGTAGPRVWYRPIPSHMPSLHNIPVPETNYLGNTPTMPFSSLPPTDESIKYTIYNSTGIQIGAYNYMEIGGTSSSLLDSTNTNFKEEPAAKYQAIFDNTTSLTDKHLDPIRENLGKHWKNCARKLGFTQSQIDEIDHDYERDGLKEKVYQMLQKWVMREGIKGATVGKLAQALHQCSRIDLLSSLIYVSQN
Chain of Ephrin type-B receptor 3 (Homo sapiens) (P54753 whole entry, the tested form may be a part): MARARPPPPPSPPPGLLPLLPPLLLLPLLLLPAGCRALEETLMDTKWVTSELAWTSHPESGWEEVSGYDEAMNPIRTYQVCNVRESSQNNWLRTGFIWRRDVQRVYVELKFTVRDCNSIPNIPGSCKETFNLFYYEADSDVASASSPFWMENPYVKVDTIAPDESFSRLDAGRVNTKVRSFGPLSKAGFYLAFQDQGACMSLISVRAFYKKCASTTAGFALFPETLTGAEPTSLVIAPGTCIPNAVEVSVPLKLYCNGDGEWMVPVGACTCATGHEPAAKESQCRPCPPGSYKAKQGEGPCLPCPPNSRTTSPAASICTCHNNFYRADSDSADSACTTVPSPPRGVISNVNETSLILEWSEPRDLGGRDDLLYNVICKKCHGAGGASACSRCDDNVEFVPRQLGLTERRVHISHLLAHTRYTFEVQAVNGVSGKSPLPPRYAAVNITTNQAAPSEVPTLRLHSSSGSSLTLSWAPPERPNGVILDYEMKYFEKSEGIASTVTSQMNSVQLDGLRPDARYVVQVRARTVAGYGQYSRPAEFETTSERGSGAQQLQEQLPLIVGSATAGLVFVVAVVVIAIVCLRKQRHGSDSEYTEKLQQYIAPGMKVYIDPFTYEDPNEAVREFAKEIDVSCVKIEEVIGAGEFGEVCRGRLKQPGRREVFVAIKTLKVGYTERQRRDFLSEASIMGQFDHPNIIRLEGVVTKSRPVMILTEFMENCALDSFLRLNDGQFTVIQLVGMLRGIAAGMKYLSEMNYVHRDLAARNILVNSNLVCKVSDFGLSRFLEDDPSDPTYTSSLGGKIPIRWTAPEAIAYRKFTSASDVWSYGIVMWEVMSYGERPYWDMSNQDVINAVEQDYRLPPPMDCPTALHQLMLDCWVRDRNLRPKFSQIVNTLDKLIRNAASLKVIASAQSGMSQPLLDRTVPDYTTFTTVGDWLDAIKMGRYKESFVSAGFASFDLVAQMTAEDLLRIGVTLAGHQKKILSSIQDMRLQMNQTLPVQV
Chain of Serine/threonine-protein kinase RIO3 (Homo sapiens) (O14730 whole entry, the tested form may be a part): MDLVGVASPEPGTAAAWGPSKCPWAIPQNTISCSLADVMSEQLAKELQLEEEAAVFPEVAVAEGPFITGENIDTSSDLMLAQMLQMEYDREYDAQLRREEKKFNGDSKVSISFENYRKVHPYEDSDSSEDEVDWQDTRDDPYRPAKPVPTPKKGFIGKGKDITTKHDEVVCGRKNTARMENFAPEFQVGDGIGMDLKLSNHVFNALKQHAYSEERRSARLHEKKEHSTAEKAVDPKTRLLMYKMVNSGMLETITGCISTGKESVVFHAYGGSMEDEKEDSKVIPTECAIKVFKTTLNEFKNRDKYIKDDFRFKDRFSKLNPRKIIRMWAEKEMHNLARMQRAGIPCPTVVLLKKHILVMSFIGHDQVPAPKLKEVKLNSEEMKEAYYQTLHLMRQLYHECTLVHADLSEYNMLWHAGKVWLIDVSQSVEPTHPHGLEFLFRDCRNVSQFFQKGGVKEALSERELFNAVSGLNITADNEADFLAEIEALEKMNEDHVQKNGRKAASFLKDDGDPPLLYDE
Chain of Activin receptor type-2A (Homo sapiens) (P27037 whole entry, the tested form may be a part): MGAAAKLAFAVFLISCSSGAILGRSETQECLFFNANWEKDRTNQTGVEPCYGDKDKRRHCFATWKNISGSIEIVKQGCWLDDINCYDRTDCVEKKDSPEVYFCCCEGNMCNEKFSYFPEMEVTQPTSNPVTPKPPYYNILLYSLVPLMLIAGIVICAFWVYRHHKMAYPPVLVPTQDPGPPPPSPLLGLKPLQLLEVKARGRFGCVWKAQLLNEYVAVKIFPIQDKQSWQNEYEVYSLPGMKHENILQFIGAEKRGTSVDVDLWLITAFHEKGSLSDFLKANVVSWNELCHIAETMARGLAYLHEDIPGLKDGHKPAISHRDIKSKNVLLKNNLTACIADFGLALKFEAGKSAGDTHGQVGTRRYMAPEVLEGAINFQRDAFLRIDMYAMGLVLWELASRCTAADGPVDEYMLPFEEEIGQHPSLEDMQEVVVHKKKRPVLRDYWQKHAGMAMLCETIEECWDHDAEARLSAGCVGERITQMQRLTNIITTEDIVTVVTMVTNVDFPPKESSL
Chain of Activated CDC42 kinase 1 (Homo sapiens) (Q07912 whole entry, looked up, the tested form may be a part): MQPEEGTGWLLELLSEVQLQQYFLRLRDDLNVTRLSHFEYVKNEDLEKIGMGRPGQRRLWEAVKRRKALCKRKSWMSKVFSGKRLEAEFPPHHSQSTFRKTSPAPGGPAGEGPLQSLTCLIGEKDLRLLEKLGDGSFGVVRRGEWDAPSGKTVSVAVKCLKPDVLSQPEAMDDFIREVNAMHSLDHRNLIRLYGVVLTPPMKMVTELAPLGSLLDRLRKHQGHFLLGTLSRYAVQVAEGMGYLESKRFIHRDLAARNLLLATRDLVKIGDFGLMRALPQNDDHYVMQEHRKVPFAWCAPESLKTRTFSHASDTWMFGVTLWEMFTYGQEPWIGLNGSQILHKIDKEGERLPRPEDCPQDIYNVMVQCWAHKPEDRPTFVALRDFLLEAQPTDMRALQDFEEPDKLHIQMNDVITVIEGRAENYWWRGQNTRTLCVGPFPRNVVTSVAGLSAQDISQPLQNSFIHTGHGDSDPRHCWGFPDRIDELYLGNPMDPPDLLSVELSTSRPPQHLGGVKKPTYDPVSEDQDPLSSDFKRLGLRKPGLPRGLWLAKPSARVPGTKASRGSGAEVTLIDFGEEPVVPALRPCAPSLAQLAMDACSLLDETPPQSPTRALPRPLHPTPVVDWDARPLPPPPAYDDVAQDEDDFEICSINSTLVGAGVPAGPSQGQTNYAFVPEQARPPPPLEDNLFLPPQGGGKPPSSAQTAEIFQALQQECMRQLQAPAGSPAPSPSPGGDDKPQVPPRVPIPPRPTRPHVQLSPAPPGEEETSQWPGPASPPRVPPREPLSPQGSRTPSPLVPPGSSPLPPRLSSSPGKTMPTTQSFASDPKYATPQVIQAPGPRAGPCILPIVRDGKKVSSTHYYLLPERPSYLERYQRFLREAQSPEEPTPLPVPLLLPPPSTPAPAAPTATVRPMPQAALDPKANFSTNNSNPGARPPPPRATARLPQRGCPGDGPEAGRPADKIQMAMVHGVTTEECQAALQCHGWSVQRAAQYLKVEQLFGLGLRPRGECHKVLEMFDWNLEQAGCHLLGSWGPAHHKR

**Q.** For `O=C(Nc1cc(-c2cn(CCNc3c4c(nc5ccccc35)CCCC4)nn2)ccn1)Nc1cccc2c1C1CCCCN1C2=O` (racemic), which Activity [1] is on record?
**A.** Its Activity is 53%.

**Q.** What about the Activity [2] of the same compound?
**A.** The Activity was 88%.

**Q.** What about the Activity [3] of the same compound?
**A.** The Activity was 66%.

**Q.** And the Activity [4]?
**A.** Its Activity is 100%.

**Q.** What about the Activity [5] of the same compound?
**A.** The Activity was 11%.

**Q.** And the Activity [6]?
**A.** Its Activity is 3.3%.

**Q.** And the Activity [7]?
**A.** Its Activity is 100%.

**Q.** What about the Activity [8] of the same compound?
**A.** Its Activity is 81%.

**Q.** What about the Activity [9] of the same compound?
**A.** The Activity was 1.4%.

**Q.** What about the Activity [10] of the same compound?
**A.** The Activity was 2.8%.

**Q.** What about the Activity [11] of the same compound?
**A.** Its Activity is 75%.

**Q.** What about the Activity [12] of the same compound?
**A.** Its Activity is 79%.

**Q.** And the Activity [13]?
**A.** Its Activity is 100%.

**Q.** And the Activity [14]?
**A.** Its Activity is 51%.

**Q.** And the Activity [15]?
**A.** Its Activity is 38%.

**Q.** What about the Activity [16] of the same compound?
**A.** Its Activity is 27%.

**Q.** And the Activity [17]?
**A.** Its Activity is 100%.

**Q.** What about the Activity [18] of the same compound?
**A.** Its Activity is 1.4%.

**Q.** What about the Activity [19] of the same compound?
**A.** Its Activity is 13%.

**Q.** What about the IC50 [20] of the same compound?
**A.** Its IC50 is 16 nM.

**Q.** And the Activity [21]?
**A.** Its Activity is 79%.

**Q.** What about the Activity [22] of the same compound?
**A.** The Activity was 0.05%.

**Q.** What about the Activity [23] of the same compound?
**A.** The Activity was 39%.

**Q.** What about the Activity [24] of the same compound?
**A.** The Activity was 68%.

**Q.** What about the Activity [25] of the same compound?
**A.** Its Activity is 15%.
